The subject of assay [1] is Mycobacterium tuberculosis. Kind of assay: Antimycobacterial activity against multi drug resistant Mycobacterium tuberculosis Praha 4 after 14 days by microdilution method. Particulars: Praha 4, 336 h. For orientation: Broth dilution looks for growth in wells or tubes with falling amounts of substance.
Assay [2] has as its system Mycobacterium tuberculosis. As to the kind of experiment: Antimycobacterial activity against multi drug resistant Mycobacterium tuberculosis 9449/2007 after 14 days by microdilution method. It counts as functional. The note with it: for MIC99: 9449/2007, 336 h.
Assay [3] has as its system Mycobacterium tuberculosis. Kind of assay: Antimycobacterial activity against multi drug resistant Mycobacterium tuberculosis 8666/2010 after 14 days by microdilution method. It counts as functional. The note with it: for MIC99: 8666/2010, 336 h.
Assay [4] has as its system Mycobacterium tuberculosis. As to the kind of experiment: Antimycobacterial activity against multi drug resistant Mycobacterium tuberculosis Praha 1 after 14 days by microdilution method. Type of assay: functional. Particulars: for MIC99: Praha 1, 336 h.
Assay [5] has as its system Mycobacterium tuberculosis. Kind of assay: Antimycobacterial activity against multi drug resistant Mycobacterium tuberculosis Praha 131 after 14 days by microdilution method. It counts as functional. The note with it: for MIC99: Praha 131, 336 h.
Assay [6] deals with Mycobacterium tuberculosis. As to the kind of experiment: Antimycobacterial activity against multi drug resistant Mycobacterium tuberculosis 234/2005 after 21 days by microdilution method. Type of assay: functional. Particulars: 234/2005, 504 h.
The test system of assay [7] is Mycobacterium tuberculosis. Kind of assay: Antimycobacterial activity against multi drug resistant Mycobacterium tuberculosis 9449/2007 after 21 days by microdilution method. Type of assay: functional. The note with it: 9449/2007, 504 h.
For assay [8], the system named is Mycobacterium tuberculosis. As to the kind of experiment: Antimycobacterial activity against multi drug resistant Mycobacterium tuberculosis 8666/2010 after 21 days by microdilution method. Type of assay: functional. Particulars: 8666/2010, 504 h.
Assay [9] concerns Mycobacterium tuberculosis. As to the kind of experiment: Antimycobacterial activity against multi drug resistant Mycobacterium tuberculosis Praha 1 after 21 days by microdilution method. Type of assay: functional. The note with it: Praha 1, 504 h.
The test system of assay [10] is Mycobacterium tuberculosis. As to the kind of experiment: Antimycobacterial activity against multi drug resistant Mycobacterium tuberculosis Praha 4 after 21 days by microdilution method. Particulars: Praha 4, 504 h. It counts as functional.
Assay [11] relates to Mycobacterium tuberculosis. Kind of assay: Antimycobacterial activity against multi drug resistant Mycobacterium tuberculosis Praha 131 after 21 days by microdilution method. It counts as functional. Particulars: Praha 131, 504 h.
The subject of assay [12] is Mycobacterium tuberculosis. As to the kind of experiment: microbe, parasite or virus in culture. Particulars: 234/2005, 336 h.

The values that follow come from ChEMBL document CHEMBL3797190, “Development of 3,5-Dinitrobenzylsulfanyl-1,3,4-oxadiazoles and Thiadiazoles as Selective Antitubercular Agents Active Against Replicating and Nonreplicating Mycobacterium tuberculosis” (J Med Chem, 2016).

Values after ≈ are worked out from the molar mass of the structure shown.

In turn, `CC1COc2c(N3CCN(C)CC3)c(F)cc3c(=O)c(C(=O)O)cn1c23` (stereo unspecified) [OFLOXACIN] had an MIC99 in assay [1] above 16 µM.
Turning to `O=[N+]([O-])c1cc(CSc2nnc(-c3ccc(Cl)cc3)s2)cc([N+](=O)[O-])c1`, the MIC99 in assay [2] was found to be 0.25 µM (≈ 0.102 µg/mL); in assay [3] it was 0.25 µM (≈ 0.102 µg/mL); in assay [4] it was 0.25 µM (≈ 0.102 µg/mL); in assay [1], 0.25 µM (≈ 0.102 µg/mL); in assay [5], 0.5 µM (≈ 0.204 µg/mL); in assay [6] it was 0.5 µM (≈ 0.204 µg/mL). In addition, the MIC99 in assay [7], in assay [8], in assay [9], in assay [10], in assay [11] and in [12] was 0.5 µM (≈ 0.204 µg/mL) throughout.
In the case of GENTAMICIN, the MIC>99 was 1 µM in assay [2], 2 µM in assay [3], 1 µM in [4] and above 8 µM in assay [5].
For the compound `COc1ccc(-c2nnc(SCc3cc([N+](=O)[O-])cc([N+](=O)[O-])c3)s2)cc1`, the MIC99 in assay [2] was found to be 0.125 µM (≈ 0.0506 µg/mL); in assay [3], 0.06 µM (≈ 0.0243 µg/mL); in [4] it was 0.125 µM (≈ 0.0506 µg/mL); in assay [1], 0.125 µM (≈ 0.0506 µg/mL); in assay [5], 0.125 µM (≈ 0.0506 µg/mL); in assay [6], 0.25 µM (≈ 0.101 µg/mL). The MIC99 in [7] worked out at 0.25 µM (≈ 0.101 µg/mL); in assay [8], 0.125 µM (≈ 0.0506 µg/mL); in assay [9], 0.25 µM (≈ 0.101 µg/mL); in assay [10], 0.25 µM (≈ 0.101 µg/mL); in [11] it was 0.25 µM (≈ 0.101 µg/mL); in assay [12] it was 0.125 µM (≈ 0.0506 µg/mL).
Regarding `O=[N+]([O-])c1cc(CSc2nnc(-c3ccccc3)o2)cc([N+](=O)[O-])c1`, the MIC99 in assay [3], in assay [1], in [5] and in assay [12] was at most 0.03 µM in each case.
For the compound `CO[C@H]1/C=C/O[C@@]2(C)Oc3c(C)c(O)c4c(O)c(c(/C=N/N5CCN(C)CC5)c(O)c4c3C2=O)NC(=O)/C(C)=C\C=C\[C@H](C)[C@H](O)[C@@H](C)[C@@H](O)[C@@H](C)[C@H](OC(C)=O)[C@@H]1C` [RIFAMPIN], the MIC99 in assay [2], in assay [3], in [4], in assay [1], in assay [5] and in [12] was above 8 µM throughout.
Take `CN[C@@H]1[C@H](O[C@H]2[C@H](O[C@H]3[C@H](O)[C@@H](O)[C@H](N=C(N)N)[C@@H](O)[C@@H]3N=C(N)N)O[C@@H](C)[C@]2(O)C=O)O[C@@H](CO)[C@H](O)[C@H]1O` [STREPTOMYCIN]: the MIC99 in assay [2], in [3], in assay [1] and in [5] was above 32 µM throughout.
Take `COc1ccc(-c2nnc(SCc3cc([N+](=O)[O-])cc([N+](=O)[O-])c3)o2)cc1`: the MIC99 in [2], in assay [3], in [4], in assay [1], in assay [5] and in assay [8] was 0.06 µM (≈ 0.0233 µg/mL) in each case. The compound also came in with an MIC99 in assay [12] of 0.06 µM (≈ 0.0233 µg/mL).
Compound `NCC[C@H](O)C(=O)N[C@@H]1C[C@H](N)[C@@H](O[C@H]2O[C@H](CN)[C@@H](O)[C@H](O)[C@H]2O)[C@H](O)[C@H]1O[C@H]1O[C@H](CO)[C@@H](O)[C@H](N)[C@H]1O` [AMIKACIN] showed an MIC99 in [5] above 32 µM.
